Data on ten compounds can be found in patent publication US8754226B2, “Piperidinyl-substituted lactams as GPR119 modulators” (Array BioPharma Inc., priority 2010, dated 2014).

The test concerns modified version of the GPR119 receptor (94% identity to human receptor). In words: cAMP production assay (LANCE cAMP kit, TR-FRET) in HEK-293 cells. Type of test: cell-based. Conditions: for cAMP production in HEK-293 cells: HEK-293 cells stably expressing modified GPR119, test compounds 0.2 nM to 10 μM, one-hour incubation at ambient temperature; for Fold over baseline: increase in cAMP relative to basal levels, agonist activity if 1.5-fold or greater. In a few lines:
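Doxycycline-induced (1 μg/mL, overnight) HEK-293 cells expressing modified GPR119 were thawed, 2000 cells/well, and exposed to compounds (0.2 nM-10 μM final, 0.5% DMSO) for 1 h at ambient temperature in HBSS/HEPES/BSA. cAMP was measured by LANCE TR-FRET against a standard curve. Agonism was defined as ≥1.5-fold over basal.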

Take `CCc1cnc(N2CCC(N3CCC[C@H](Nc4cc(Cl)c(S(C)(=O)=O)cc4F)C3=O)CC2)nc1` [Example 48, (S)-3-(5-chloro-2-fluoro-4-(methyl-sulfonyl)phenylamino)-1′-(5-ethylpyrimidin-2-yl)-[1,4′-bipiperidin]-2-one]: the “cAMP production in HEK-293 cells” value is 16.9 nmol and the Fold over baseline was found to be 3.0.

As for `CS(=O)(=O)c1cc(F)c(N[C@H]2CCN(C3CCN(c4ccc(C(F)(F)F)cn4)CC3)C2=O)cc1F` [Example 100, (S)-3-(2,5-difluoro-4-(methylsulfonyl)phenylamino)-1-(1-(5-(trifluoromethyl)pyridin-2-yl)piperidin-4-yl)pyrrolidin-2-one], the “cAMP production in HEK-293 cells” value was determined as 8.4 nmol and the Fold over baseline is reported as 2.6.

In the case of `CS(=O)(=O)c1ccc(N[C@H]2CCN(C3CCN(c4ncc(Cl)cn4)CC3)C2=O)c(F)c1` [Example 10, (S)-1-(1-(5-chloropyrimidin-2-yl)piperidin-4-yl)-3-(2-fluoro-4-(methylsulfonyl)phenylamino)pyrrolidin-2-one], the “cAMP production in HEK-293 cells” value amounted to 6.5 nmol and the Fold over baseline turned out to be 2.1.

With `CS(=O)(=O)c1ccc(N[C@H]2CCN(C3CCN(c4ncc(Cl)cc4F)CC3)C2=O)c(F)c1` [Example 115, (S)-1-(1-(5-chloro-3-fluoropyridin-2-yl)piperidin-4-yl)-3-(2-fluoro-4-(methylsulfonyl)phenyl-amino)pyrrolidin-2-one], the “cAMP production in HEK-293 cells” value was found to be 15.4 nmol and the Fold over baseline came to 3.8.

For `CCc1cnc(N2CCC(N3CC[C@H](Nc4cc(F)c(S(C)(=O)=O)cc4F)C3=O)CC2)nc1` [Example 5, (S)-3-(2,5-difluoro-4-(methyl-sulfonyl)phenylamino)-1-(1-(5-ethylpyrimidin-2-yl)piperidin-4-yl)pyrrolidin-2-one], the “cAMP production in HEK-293 cells” value stood at 12.3 nmol and the Fold over baseline was 2.2.

Consider `CS(=O)(=O)c1cc(F)c(N[C@H]2CCN(C3CCN(c4ccc(C(F)(F)F)cn4)CC3)C2=O)c(F)c1` [Example 105, (S)-3-(2,6-difluoro-4-(methylsulfonyl)phenyl-amino)-1-(1-(5-(trifluoromethyl)pyridin-2-yl)piperidin-4-yl)pyrrolidin-2-one], for which the “cAMP production in HEK-293 cells” value turned out to be 11.5 nmol and the Fold over baseline was found to be 1.6.

Turning to `CS(=O)(=O)c1ccc(N[C@H]2CCN(C3CCN(c4nccnc4C#N)CC3)C2=O)c(F)c1` [Example 132, (S)-3-(4-(3-(2-fluoro-4-(methylsulfonyl)phenyl-amino)-2-oxopyrrolidin-1-yl)piperidin-1-yl)pyrazine-2-carbonitrile], the “cAMP production in HEK-293 cells” value was 9.1 nmol and the Fold over baseline is reported as 1.5.

Turning to `CCCCCCCCCCc1cnc(N2CCC(N3CCC[C@H](Nc4cc(F)c(S(C)(=O)=O)cc4F)C3=O)CC2)nc1` [Example 46, (S)-1′-(5-decylpyrimidin-2-yl)-3-(2,5-difluoro-4-(methylsulfonyl)phenylamino)-[1,4′-bipiperidin]-2-one], the “cAMP production in HEK-293 cells” value came to 10.7 nmol and the Fold over baseline was found to be 2.2.

As for `CCc1cnc(N2CCC(N3CCC[C@H](Nc4ccc(S(C)(=O)=O)cc4F)C3=O)CC2)nc1` [Example 40, (S)-1′-(5-ethylpyrimidin-2-yl)-3-(2-fluoro-4-(methylsulfonyl)phenylamino)-[1,4′-bipiperidin]-2-one], the “cAMP production in HEK-293 cells” value was 12.4 nmol and the Fold over baseline is 2.2.

As for `CCc1ccc(N2CCC(N3CC[C@@H](Nc4ccc(S(C)(=O)=O)cc4F)C3=O)CC2)nc1` [Example 27B, (R)-1-(1-(5-ethylpyridin-2-yl)piperidin-4-yl)-3-(2-fluoro-4-(methylsulfonyl)phenylamino)pyrrolidin-2-one], the “cAMP production in HEK-293 cells” value stood at 7.5 nmol and the Fold over baseline was 2.2.
